In paper PMC8876231, “Analogues of Natural Chalcones as Efficient Inhibitors of AKR1C3” (Metabolites, 2022):
Values joined by “and” are separate entries in the source; they are usually repeats but may differ in a detail not shown here. Equal entries are not always repeated. Each block holds one compound with its values, some of them ahead of it.

Legend:
[1] = system: AKR1C3; settings: co-crystallised ligand of PDB 3UWE; cited from earlier work
[2] = biological target: T1, AKR1C3 (Homo sapiens, UniProt P42330); test: AKR1C3 enzymatic inhibition assay (∆4-androstene-3,17-dione to testosterone); type: biochemical; settings: 10 µM compound, ∆4-androstene-3,17-dione reduction, triplicates, mean ± SD
T1 construct: GST (own knowledge: pGEX vectors encode N-terminal GST); made in house; host or cells: E. coli BL21 DE3 Codon Plus RP, lysate
T1 sequence (P42330 1-323): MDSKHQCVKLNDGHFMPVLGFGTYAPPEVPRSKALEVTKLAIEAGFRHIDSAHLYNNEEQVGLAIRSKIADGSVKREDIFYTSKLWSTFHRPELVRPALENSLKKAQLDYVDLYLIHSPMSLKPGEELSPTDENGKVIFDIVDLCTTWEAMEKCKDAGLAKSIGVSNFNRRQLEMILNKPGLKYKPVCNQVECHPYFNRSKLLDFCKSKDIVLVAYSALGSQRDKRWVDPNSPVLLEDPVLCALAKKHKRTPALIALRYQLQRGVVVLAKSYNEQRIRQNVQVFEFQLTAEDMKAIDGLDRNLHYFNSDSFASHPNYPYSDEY
Text: For enzymatic assays and inhibitor testing, all enzymes were cloned into bacterial or mammalian expression vectors. AKR1C3 and the human hydroxysteroid dehydrogenases HSD17B1, HSD17B2, HSD17B4 (SDR domain), HSD17B7, and HSD17B10 were cloned into a pGEX vector as described in [71, 72]. The coding sequences for AKR1C1, AKR1C2, and AKR1C4 were cloned by Gateway technology into the pcDNA3-N-MycDest vector according to the manufacturer’s instructions (Life Technologies, Carlsbad, CA, USA). The p11 plasmid coding for HSD17B14 (S205 variant) was a gift from Udo Opperman SGC Oxford, UK. For assays with HSD17B3, HEK293 cells stably expressing HSD17B3 were used. Enzymes were expressed in E. coli BL21 DE3 or E. coli BL21 DE3 Codon Plus RP (Stratagene, San Diego, CA, USA) or in HEK293 cells as described in [71, 72, 73]. Bacterial and cell pellets were stored at −20 °C and −80 °C, respectively, until use.
Inhibition assays were carried out as described in [71, 74]. […] For a detailed assay setup, see Supplementary Table S6. The incubation at 37 °C was stopped with 0.21 M ascorbic acid in methanol:acetic acid 99:1 (v:v) after the time needed to convert approximately 30% of the substrate in a control assay with 1% DMSO, without inhibitor candidate. Substrates and products were extracted from the reaction mixture by solid-phase extraction using C18 cartridges (Phenomenex, Aschaffenburg, Germany) and separated by RP–HPLC in a Beckman–Coulter HPLC Gold system, using the Luna 5 µm C18(2), 125 × 4.0 mm column (Phenomenex). The mobile phases used were H2O:ACN (57:43 (v:v); for assays of estrone (E1) to oestradiol (E2), E2 to E1, and ∆4-androstene-3,17-dione to testosterone conversion), H2O:ACN (49:51 (v:v); for assays of progesterone to 20α-hydroxyprogesterone conversion), and H2O:MeOH (35:65 (v:v) for assays of dihydrotestosterone (DHT) to 3α-androstanediol conversion) at a flow rate of 1 mL/min. Radioactivity was detected by online scintillation counting by using a radioactivity monitor (LB506D, Berthold Technologies, Bad Wildbad, Germany). Conversion of substrates to products was determined by integration of the peak area of the substrate and product peaks in percent. For calculation of inhibition, the conversion of control assay (assay without inhibitor) was set to 0% inhibition. All assays were run in triplicates, and mean values ± SD are reported.
For the determination of IC50 values, percent inhibition values were fitted using the Enzyme Kinetics module of SigmaPlot 13.0 and the one-site ligand-binding model according to the formula f = Bmax * abs(x)/(Kd + abs(x)).
Table S6: Activity assay setup […]
E1: estrone; E2: 17β-estradiol, A: Δ4-androstene-3,17-dione; T: testosterone, P: progesterone, 20αOHP: 20α-hydroxyprogesterone, DHT: dihydrotestosterone, 3α-Adiol: 3α-androstanediol, NaPi: 100 mM Na-phosphate buffer; PI: C0mplete protease inhibitor (Roche);. E.coli - Expression in E.coli BL21 DE3 Codon Plus RP except E.coli BL21 DE3 […]
application to antiparasitic and natural product synthesis. Eur J Org Chem […]
Synthesis of Xanthohumol analogues and discovery of potent thioredoxin reductase inhibitor as potential anticancer agent. J Med Chem 2015, 58,

[3] = biological target: aromatase; parameters: method as in PMID 11205867; settings: human placental microsomes; cited from earlier work
[4] = system: 17β-HSD; parameters: method as in PMID 11205867; settings: human placental microsomes, compound concentration 10 µM; cited from earlier work
[5] = system: DU145; parameters: method as in PMID 12706007; settings: human prostate cancer cell line DU145; read-out: IC50 growth inhibition DU145; cited from earlier work
[6] = system: LNCaP; parameters: method as in PMID 12706007; settings: human prostate cancer cell line LNCaP; read-out: IC50 growth inhibition LNCaP; cited from earlier work

SMILES: O=C(O)c1cccc(Oc2ccccc2)c1 [3-phenoxybenzoic acid]
IC50 [1]: 0.68 µM

inhibition at 10 µM [2]: 37.2 ± 1.4%
SMILES: O=C(/C=C/c1ccc(O)c(O)c1)c1ccc(O)cc1O [Butein (17), butein, reference compound]

AKR1C3 Inhibition at 10 µM [%] [2]: 70.8 ± 3.8%
SMILES: O=C(/C=C/c1ccc(Cl)cc1)c1c(O)cc(O)cc1O [Compound 22]

AKR1C3 Inhibition at 10 µM [%] [2]: 24.6 ± 4.8%
SMILES: COc1cc(O)cc(O)c1C(=O)/C=C/c1ccc(O)cc1 [Compound 24]

AKR1C3 Inhibition at 10 µM [%] [2]: 68.5 ± 6.4%
SMILES: O=C(/C=C/c1ccc(F)cc1)c1c(O)cc(O)cc1O [Compound 26]

AKR1C3 Inhibition at 10 µM [%] ([2]; 10 µM): 26.1% and 20.3 ± 8.4%
SMILES: COc1cc(O)cc(O)c1C(=O)/C=C/c1ccc(F)cc1 [Compound 27]

AKR1C3 Inhibition at 10 µM [%] ([2]; 10 µM): 20.3% and 26.1 ± 2.0%
SMILES: COc1cc(O)cc(O)c1C(=O)/C=C/c1ccc(Cl)cc1 [Compound 28]

SMILES: O=C(/C=C/c1ccc(O)cc1)c1c(O)cc(O)cc1O [Compound 29, naringenin chalcone]
IC50 [3]: 2.6 µM
17β-HSD inhibition [4]: 2.4%
AKR1C3 Inhibition at 10 µM [%] [2]: 40.6 ± 7.7%

inhibition at 10 µM [2]: 31.1 ± 3.2%
SMILES: O=C(/C=C/c1ccc(O)cc1)c1ccc(O)cc1O [Isoliquiritigenin (16), isoliquiritigenin, reference compound]
IC50 [5]: 11 µM
IC50 [6]: 13 µM
17β-HSD inhibition [4]: 10%
